Experimental data taken from patent publication US9597283B2, “Injectable depot formulation comprising optically active tolvaptan and process of producing the same” (OTSUKA PHARMACEUTICAL CO., LTD., priority 2012, dated 2017).

Key:
[1] = dissolution test of tolvaptan powders; assay type: physicochemical; details: Test Example 3; crystal powders; 0.1 g in 500 mL polysorbate 80 / phosphate solution pH 7.4; sampling up to 48 hours; FIG. 5
Procedure: The dissolution test of each of the R- and S-tolvaptan SD powders of Examples 1 and 2, tolvaptan (racemic compound) SD powders of Comparative Examples 1 to 6, and tolvaptan (racemic compound) crystal powder of Comparative Example 7 was performed (FIGS. 2 to 4). In the dissolution test method, the R- and S-tolvaptan SD powders, tolvaptan (racemic compound) SD powders, and tolvaptan (racemic compound) crystal powder were weighed out in individual amounts of 0.1 g, and added to a solution (500 mL) for dissolution test shown in Table 2. None of the tolvaptans in an amount weighed above were dissolved in the solvent for dissolution test, and were fully suspended. Sequential sampling was performed 0.083, 0.167, 0.5, 1, 2, 4, 6, 8, 12, 24, 48, and 144 hours after addition.
The dissolution test of each of the R- and S-tolvaptan crystal powders was performed (FIG. 5). As a control, the result of Comparative Example 7 in Test Example 2 above was plotted. In the dissolution test method, an R-tolvaptan crystal powder (mean particle size: 34.0 μm) or an S-tolvaptan crystal powder (mean particle size: 35.8 μm) was weighed out in an amount of 0.1 g, and added to the solution for the dissolution test (500 mL) shown in Table 2 above. None of the tolvaptans in an amount weighed above were dissolved in the solution for dissolution test, and were fully suspended. […]

[2] = in vitro metabolic stability test, rat liver homogenate (S9 fraction); assay type: in vitro ADME; details: 100 nM, sampling 5, 10, 30, 60 minutes, LC-MS/MS, FIG. 1 (2)
Procedure: (§1) Using human and rat liver homogenates (S9 fractions), the in vitro metabolic stability test of tolvaptan (racemic compound), R-tolvaptan, and S-tolvaptan was performed. The concentration of each evaluated compound was set to 100 nM, and the concentration sampling of each compound in a reaction mixture was conducted over time, i.e., 5, 10, 30, and 60 minutes after addition, and measured by LC-MS/MS (FIGS. 1 (1) and (2)).

[3] = in vitro metabolic stability test, human liver homogenate (S9 fraction); assay type: in vitro ADME; details: 100 nM, sampling 5, 10, 30, 60 minutes, LC-MS/MS, FIG. 1 (1)
Procedure: as §1

Cc1ccccc1C(=O)Nc1ccc(C(=O)N2CCC[C@@H](O)c3cc(Cl)ccc32)c(C)c1 [R-tolvaptan, R-(+)-7-chloro-5-hydroxy-1-[2-methyl-4-(2-methylbenzoylamino)benzoyl]-2,3,4,5-tetrahydro-1H-benzazepine]
dissolution amount [1]: slightly higher than that of the tolvaptan (racemic compound) crystal of Comparative Example 7, and remained fairly constant
in vitro metabolic stability (disappearance over time) [2]: disappeared slowly compared to tolvaptan (racemic compound) or S-tolvaptan, and had high metabolic stability

Cc1ccccc1C(=O)Nc1ccc(C(=O)N2CCC[C@H](O)c3cc(Cl)ccc32)c(C)c1 [S-tolvaptan, S-(−)-7-chloro-5-hydroxy-1-[2-methyl-4-(2-methylbenzoylamino)benzoyl]-2,3,4,5-tetrahydro-1H-benzazepine]
dissolution amount [1]: slightly higher than that of the tolvaptan (racemic compound) crystal of Comparative Example 7, and remained fairly constant
in vitro metabolic stability (disappearance over time) [3]: disappeared slowly compared to tolvaptan (racemic compound) or R-tolvaptan, and had high metabolic stability
